Results taken from US11104805B2, “High-saturation scarlet color dye ink for high-speed inkjet process” (KOREA INSTITUE OF INDUSTRIAL TECHNOLOGY, priority 2018, dated 2021).
Entries after “also recorded” stand apart in the source; their conditions may differ.

Tests used:
Water solubility of dyes = assay type: physicochemical
[1] = UV-Vis absorption spectra of dyes in water; assay type: physicochemical; conditions: 10^−5 M in water
Source text: The UV-Vis absorption spectra of the dyes 1b to 3b measured at 10^−5 M in water are illustrated in FIG. 2, and corresponding data are shown in Table 1 below. […] When the water solubility of the dye increases, the probability of being present as a single molecule increases, and thus the color developability of each dye molecule is increased, resulting in increased color intensity.
In addition, an absorption peak form having two absorption maxima appeared. This is because a single molecule and aggregated molecules have different absorption maxima. Generally, as the concentration becomes lower, the probability of being present as a single molecule increases, and as the concentration increases, the tendency to aggregate becomes stronger, and thus one peak appears at each maximum, but it was confirmed from this experiment that since the two cases were present at a measurement concentration of 10 μM, absorption peaks appeared separately.

[2] = Thermal stability by TGA under N2 atmosphere; assay type: physicochemical
Source text: The thermal stability of each sample was investigated by a TGA method under an N2 atmosphere.

[3] = Light stability: relative absorbance over time under light irradiation
Experimental: An absorbance value before light irradiation was set to 1 and relative absorbance values over time were measured.

Row | Structure (SMILES) | water solubility compared with the synthesized perylene dyes (1b to 3b) (Water solubility of dyes; comparison in words) | εmax ([1]; at first (or only) absorption maximum) [L/mol/cm] | λmax (nm) (after 1,200 min) ([1]; first (or only) absorption maximum) | Td (degradation temperature) [2] [°C] | shift of absorption maxima after final light irradiation ([3]; 1,200 minutes) | relative absorbance after final light irradiation ([3]; 1,200 minutes, absorbance before irradiation set to 1) | λmax (nm) (after 1200 min) ([3]; after 1200 min light irradiation, first (or only) maximum) | λmax (nm) ([3]; before light irradiation, first (or only) maximum) | K (photodegradation rate constant) ([3]; light irradiation) [min⁻¹] | water solubility (Water solubility of dyes; in water) [wt %]
1 | O=S(=O)([O-])c1ccc2c(N=Nc3ccc(S(=O)(=O)[O-])c4ccccc34)c(O)c(S(=O)(=O)[O-])cc2c1.[Na+].[Na+].[Na+] [Acid red 27] | poorer water solubility; also recorded: deteriorated solubility | 23000 | 521 | 291 | about 4 nm | about 0.5 | (→ 506) nm | 502 | 0.0004945 | 
2 | O=C1c2ccc3c4c(S(=O)(=O)O)cc5c6c(ccc(c7c(S(=O)(=O)O)cc(c2c37)C(=O)N1c1ccc(S(=O)(=O)O)cc1)c64)C(=O)N(c1ccc(S(=O)(=O)O)cc1)C5=O [Dye 3b, N,N′-bis[4-(sulfuric acid)phenyl]-1,7-(disulfuric acid)perylene-3,4,9,10-tetra carboxydiimide] |  |  |  |  |  |  |  |  |  | ≥ 20
